# System: NIH Swiss mice
# Test: Catalepsy, horizontal bar test
# Format: in vivo, mouse
# Conditions: M4 10 mg/kg i.p. + JWH-018 3 mg/kg i.p.
compound,measurement,value
CCCCn1cc(C(=O)c2cccc3ccccc23)c2cccc(O)c21 [Compound M4],antagonism of JWH-018-induced catalepsy,no difference
